The results in this text go back to patent US8609409B2, “Methods and compositions for cell culture platform” (Clemson University, priority 2009, dated 2013).

In series [1] the test system is Human neural progenitor cells (hNPCs). The series is described as follows: hNPC attachment, morphology and proliferation on gold-coated cover slips. In kind it is cell-based. Conditions: for hNPC attachment: day 1; for state of attached hNPCs: day 10. As to the method:
(§1) Human neural progenitor cells were obtained from Millipore (Billerica, Mass.). The stem cell is an immortalized neural progenitor cell line derived from the ventral mesencephalon region of human fetal brain and immortalized by retroviral transduction with the v-myc oncogene. In conventional culture, laminin (20 μg/mL) was used to coat tissue culture plastic-wares at least 2 h before hNPC seeding. Human NPCs were maintained in ReNcell Neural Stem Cell Medium (Millipore) with FGF-2 (20 ng/mL) and EGF (20 ng/mL). Human NPCs were incubated at 37° C. under 5% CO2 and used before passage 5 in this study. For cell adhesion assays, cells were removed from the plate using Accutase, aspirated in growth media, and seeded on peptide or laminin coated substrates at a density of 50, 000 cells/cm^2. For differentiation study, hNPCs were cultured with the medium without FGF-2 and EGF.
The lam-IKVAV and our synthesized peptide were conjugated to gold-coated cover slips. For gold-coating on glass surfaces, cover slips were first cleaned with ethanol by sonication for 30 min. Then gold was coated on the cover slips by a sputter coater. For peptide and laminin coating, the peptide (150 μg/mL or 100 μM) or laminin (20 μg/mL) solutions were applied on the cover slips for at least 2 h. Then the solutions were removed from the slips and washed with phosphate buffered saline (PBS) for three times. Atomic force microscope (AFM) was used to examine the 3D configuration of the peptides on the surface.
To determine whether peptide-functionalized surfaces can support cell attachment and long-term culture and proliferation, hNPCs were cultured in complete growth medium, which contains FGF-2 and EGF to maintain hNPCs in the undifferentiated state. Cells were incubated at 37° C. with media changed every other day as we routinely culture hNPCs in laminin coated substrates. At the day 1, 5, and 10, cells were assayed with CyQuant (Invitrogen). The cell number was generated through a standard curve.
(§2) Morphology of cells was examined by immunostaining of actin. Cells were fixed with 4% (w/v) paraformaldehyde, permeabilized with 0.5% Triton X-100 (t-octylphenoxyplyethoxy-ethanol), and stained with Alexa Fluor-543 Phalloidin for 30 min. The nuclei were counterstained with 1 μg/mL DAPI for 30 min. The cells were imaged using a Leica TCS SP5 laser scanning confocal microscope (Bannockburn, Ill.).

Series [2] is described as follows: Rheological characterization of PEG hydrogels conjugated with peptides. In kind it is physicochemical. Conditions: 4-arm thiolated PEG 2% + PEGTA 2%, our peptide 10, 50, 100 μM; for start of gelation process (G′>G″): 37° C., lam-IKVAV 100 μM. The method, then:
Rheometer (AR1000, TA Instruments) was used to measure hydrogel mechanical properties, such as storage modulus (G′) and loss modulus (G″), and gelation time^8. Briefly, the time sweep was performed to monitor the in situ gelation at 37° C., recording the temporal evolution of G′ and G″. Frequency sweep test was used to obtain information about the stability of hydrogel structures. The stress sweep was set up by holding the frequency 1 Hz constant while increasing the stress level from 1 to 10 Pa. […] Oscillatory stress sweep allowed determination of G′ of hydrogels.
(§3) The lam-IKVAV peptide and our synthesized peptide of different concentrations were conjugated to PEG hydrogels through addition reaction of peptide cys thiols onto the ends of a PEGTA crosslinker as described before^9. Briefly, peptides containing stock solutions (100 μM) were prepared in the PEGTA stock solution (2% w/w) and stirred for 2 h at room temperature. In the peptide-linker stock solutions, the molar ratio of peptides to PEGTA was 1:20. The reaction kinetics of conjugate addition of cys-containing IKVAV peptides to PEGTA was followed using 5,5′-dithio-bis(2-nitrobenzoic acid) (DTNB) reagent according to previous study^9. Additional PEGTA solutions with lower peptide concentrations of 50 and 10 μM were prepared by diluting the stock solution with peptide-free […] solution (peptide: PEGTA: 1:40 and 1:200, respectively). Then PEGTA solutions containing different concentrations of peptides were added to 4-arm thiolated PEG (2% w/w) solution and mixed thoroughly to form hydrogels.

Series [3] concerns Human neural progenitor cells (hNPCs). The series is described as follows: hNPCs cultured on the surface of hydrogels conjugated with peptides. Type of series: cell-based. The note with it: for hNPC attachment and proliferation on hydrogel surface: lam-IKVAV 100 μM, our peptide 10 and 100 μM. The method, then: as §3, §2
Human NPCs were cultured on the surface of hydrogels with maintain media for 7 days. Without any bioactive peptide, hNPCs could not attach on the surface of blank PEG hydrogels (FIG. 22B). The cells formed spheres by themselves at the day 3. […] These attached cells proliferated on the surface as the function of time (FIGS. 22C and 22D). […] There was no difference about the morphology of hNPCs between these two groups.

The test system is the same in series [4]. The experiment in a line: hNPC differentiation on coated cover slips. Type of series: cell-based. The note with it: 2 weeks, media without FGF-2 and EGF. The method, then: as §1
The differentiation of hNPCs on the tested surfaces was assayed by immunocytochemistry. Human NPCs were cultured for 2 weeks with differentiation media without growth factors FGF-2 and EGF. The cells were fixed with 4% (w/v) paraformaldehyde, treated with 5% goat serum in PBS to block non-specific reactivity and incubated overnight at 4° C. with primary antibodies, such as β III tubulin and glial fibrillary acidic protein (GFAP). After washing with PBS three times, the samples were incubated with the secondary antibodies at room temperature for 3 h. Then the nuclei were counterstained with DAPI for 30 min. The samples were imaged using the same microscope as described before. At least 6 random fields per surface were analyzed for each group.

In series [5] the test system is Human neurospheres (hNPCs). The series is described as follows: Human neurospheres cultured inside hydrogels conjugated with peptides. Type of series: cell-based. As to the method:
Neurospheres with uniform sizes were fabricated using a robotic fabrication system developed in our lab. Briefly, stamps with micronipple array were designed in SolidWorks and fabricated using ultra-precision lathe. The automatic neurospheres fabricator was built on a TT-C3-4040 robot (IAI Corporation, Shizuoka, Japan) with electric triggered gripper to pick up the stamp and pipette tip uptake and ejection actuator to handle liquid. Agarose solution (2% w/w) was prepared by built-in heating elements in the robot platform. The robot was programmed to first add agarose solution to culture dishes. Then the robot picked up the stamp with micronipple arrays on the bottom and pressed on the agarose solution at room temperature for 2 min. Then the highly uniform size microwells were formed in the agarose gel. Human NPC suspension was uptake by the robot and added to the culture well with microwell arrays. After 24 h of culture at 37° C. and 5% CO2, uniform sized neurospheres were formed for this study use. For 3D culture, human neurospheres with uniform size were mixed with hydrogel precursor solutions before hydrogel formation.
Viability of cells inside hydrogels was examined using LIVE/DEAD Viability Kit, which is a two color fluorescent assay based on differential permeability of live and dead cells and allows preservation of the distinctive staining pattern for a couple of hours after post-fixation with 4% (w/v) glutaraldehyde. Live cells were stained with green fluorescent SYTO 10; and dead cells with compromised cell membranes were stained with red fluorescent ethidium homodimer-2. […]
We quantified the cell migration by taking measurements of the distance between the edge of spheres and the cell bodies at their outer perimeters. FIG. 26 presents quantification of cell migration from neurospheres cultured inside hydrogels conjugated with lam-IKVAV of 100 μM and our novel IKVAV peptide of different concentrations of 0, 10, 50, and 100 μM at the day 3, 7, and 21. […]

For series [6], the system named is in vitro cell cultures. The series is described as follows: safety and cytotoxic profile of genipin. Type of series: cell-based. The text has this:
Chitosan and gelatin are two naturally occurring polymers. Chitosan is a polysaccharide formed by cross linkage of multiple monosaccharide units. It has active acetyl groups available for cross linkage. At acidic pH, chitosan is able to undergo polymerization. Gelatin is a peptide polymer and chemically derived from denatured collagen. […] Chitosan and gelatin co-polymer can be created by mixing chitosan with gelatin using a standard and well known procedure that involves creating acidic pH for chitosan polymerization followed by mixing with heated and stirred gelatin solution. However there are two disadvantages of this approach—high osmolarity of the resultant solution (>500 mM) and acidic pH. There are also concerns for cytotoxicity to biological tissues at such high concentrations. These disadvantages render the use of this copolymer useless for clinical application, In the present invention, chitosan and gelatin were cross linked by two different approaches—the first was a covalent linkage using genipin followed by using ionic cross linkage using glycerol phosphate. Genipin is a plant derived cross linker and quite cheap. […] This concentration of genipin was added to chitosan and gelatin mixture. Genipin is able to covalently link both the saccharide and amine groups available in chitosan and gelatin, respectively. This creates a polysaccharide-peptide cross linkage. […]

Entries after “also recorded” stand apart in the source; their conditions may differ. Where no end group is shown, it is not given here.

Consider “CSRARKQAASIKVAVSADR [lam-IKVAV, commercial laminin IKVAV peptide from American Peptide Company, reference compound]”, for which, in series [1], the “hNPC morphology / spreading” value is recorded as “preferred to aggregate together”, the hNPC attachment entry is reported as “very few cells attached” and the “state of attached hNPCs” value is reported as “floated off the surface”. For the same compound, the “start of gelation process (G′>G″)” value in series [2] is 30 min. In series [3], the “hNPC attachment and proliferation on hydrogel surface” value (from here on “hNPC attachment and proliferation”) is “aggregated together; also recorded: did not support any hNPC attachment”.
In the case of “Ac-Cys-Cys-Arg-Arg-Ile-Lys-Val-Ala-Val-Trp-Leu-Cys (Ac-CCRRIKVAVWLC-OH; cysteine pairing not given here) [our novel peptide]”, in series [4], the “cells differentiated into astrocytes (GFAP+)” value was 33% and the “cells differentiated into neurons (β III tubulin+)” value is 54%. Moreover, in series [4] (listed as our short peptide), the “cells differentiated into astrocytes (GFAP+)” value was “about 30%”. For the same compound, in series [5] (conjugated to PEG hydrogels), the “peptide density with maximum enhancement of cell migration” value stood at 10 µM. Further, in series [5] (peptide 10 μM, day 3, 7 and 21), the “distance of hNSCs migration from neurospheres” value is on record as 2 fold. Besides, in series [5] (peptide concentration higher than 10 μM), the “effect on cell migration from neurospheres” value is reported as “inhibitory effects on cell migration”. In addition, in series [1], the “attachment and proliferation compared with laminin coated surface” value was “no significant difference”; the “hNPC morphology / spreading” value is given as “spread more evenly”; the hNPC attachment result was “significantly much more cells attached compared to lam-IKVAV”; the “state of attached hNPCs” value is “totally confluent on the whole surface”. Also, the “start of gelation process (G′>G″)” value in series [2] turned out to be 40 min. In series [2] (at 2 h), the “storage modulus G′” value is “about 600 Pa”. The “hNPC morphology on hydrogel surface” value in series [3] (day 7, 10 and 100 μM) is “displayed spreading cytoskeletons”. Moreover, the “hNPC attachment and proliferation” value in series [3] is “improved hNPC attachment, spreading and proliferation”. The “hNPC attachment and proliferation” value in series [3] (listed as our short peptide) is “cells attached at the day 1”.
As to “laminin: mouse laminin, whole ECM protein used as coating (20 μg/mL) [reference compound]”, in series [4], the “cells differentiated into astrocytes (GFAP+)” value was found to be 74% and the “cells differentiated into neurons (β III tubulin+)” value is 11%.
Take `COC(=O)C1=CO[C@@H](O)[C@@H]2C(CO)=CC[C@H]12` [genipin]: the “concentration found to be safe” value in series [6] stood at 400 µM.
